Laboratory results taken from patent US20260193298A1, “SYNTHETIC PEPTIDE FOR USE IN AN IMMUNOMOLECULAR ASSAY” (BIOMÉRIEUX, priority 2022, published 2026).
Non-standard residues stand in square brackets, D forms with d. No end group written: not given here. Ado = 8-amino-2,4-dioxa octanoic acid

What was measured:
[1] = tested on: internal control proximity probes (18D12 anti-His tag and 2G4 anti-Lys tag antibodies coupled to MML or MMC oligonucleotides); assay: Dual-recognition immunoassay (PEA) of Bitag peptide spiked in PBS-BSA buffer, qPCR readout; assay type: binding, mouse; details: for Delta-Ct0-50: 0 vs 50 ng/mL peptide
Description: Proximity probes. Proximity probes were prepared by covalently linking purified PCT monoclonal antibodies to HPLC-purified oligonucleotides. […] Synthesis, modifications and HPLC-purification of the oligonucleotides were all performed by Integrated DNA Technologies (Louvain, Belgium). Antibody-oligonucleotide conjugates were generated using commercial Thunderlink kit (Abcam, Cambridge, UK), following the manufacturer's instructions, using a 5:1 oligonucleotide-to-antibody ratio. Conjugation quality was checked by running conjugates on a reducing 4-12% SDS-PAGE (Thermofisher, Waltham, MA, USA) followed by Coomassie Blue staining (Thermofisher) as recommended by the supplier's instructions (Abcam).
(§1) Proximity Extension Assay (PEA™). The Proximity extension assay protocol and the different buffers were taken over from the protocol initially described by Lundberg et al. and also from a recently developed shorter protocol (unpublished results). Proximity extension assay was performed in specific multi-well plates (Hard-Shell 96-Well Clear shell PCR Plates, BioRad, Hercule, CA, USA), in triplicate. Briefly, 5 μL of sample (PBS1x-0.1% BSA buffer or human EDTA plasma with or without rPCT and/or IC peptide) were mixed with 5 μL of a mix of the two PEA™ conjugates (500 pM each) diluted in the probe incubation buffer and incubated at 37° C. for 60 min. After probe incubation, a dilution buffer containing 40 mM of each dNTP were added. After a 5 minutes incubation step at 37° C., 96 μl extension mix containing 26 U/mL of T4 DNA Polymerase (Thermofisher) were added and incubated at 37° C. for an additional 3 minutes, followed by a heat inactivation step at 80° C.
(§2) Detection by qPCR. For qPCR detection, 4 μL of extension products were transferred to a qPCR plate and mixed with 36 μL of qPCR mix (SYBRGREEN mix, Bio-Rad) containing 0.6 μM of each PCR primer. A one-step qPCR was run with initial denaturation at 95° C. for 3 min, followed by 1 sec of denaturation at 95° C. and 10 sec annealing/extension at 63° C. for 40 cycles. Finally, a melt step was performed by increasing the temperature gradually from 60° C. to 95° C. at 0.5° C./sec.
Second, to determine the best combination of spacer size and oligonucleotide length, proximity probes were tested successively on the two Bitag 1 and Bitag 2 peptides. The first type of probes, called MML, featured a longer version of the oligonucleotides (49 and 56 bases), whilst the second type of probes, called MMC, featured a shorter version of the oligonucleotides (29 and 31 bases). For both MML and MMC, the size of the complementary sequence located at the 3′-end of each oligonucleotide was 9 nucleotides.
FIG. 2 summarizes the dual-recognition immunoassay results obtained for three concentrations of Bitag peptide (0, 5 and 50 ng/mL) spiked in PBS-BSA buffer.

[2] = tested on: 18D12 monoclonal antibody (anti-His tag); assay: Indirect ELISA on plates coated with Bitag peptide, detection with anti-His tag antibody; assay type: binding, mouse
Description: (§3) Enzyme Linked Immuno-Sorbant Assays (ELISA). After overnight sensitization with peptides diluted at 5 μg/mL in PBS buffer, pH 7.4 (Euromedex, Souffelweyersheim, France), Nunc 96-well plates (Thermofisher) were saturated for 1 h at room temperature (RT) with PBS1x-Bovine Serum Albumin 5% (BSA, Sigma-Aldrich, Saint Louis, MI, USA). After 4 washes with PBS1x-Tween20 0.1%, PBS1x-BSA 1% buffer containing the anti-tag antibody (at 1 μg/mL) was added and incubated for 1 h at 37° C. The developing with PNPP substrates (Thermofisher) was performed after 30 min of incubation at 37° C. with a 1/50 000 dilution in PBS-BSA-0.5% of an alkaline phosphatase (AP)-labeled streptavidin (Jackson Immunoresearch, Ely, UK). The absorbance level (optical density, OD) was red at 405 nm (OD405) using an Infinite M Nano+ microplate reader (Tecan, Mannedorf, Switzerland). All samples were tested in duplicate and in three independent experiments.
(§4) Selection and validation of the Bitag peptides and the proximity probes. First, to check that the anti-tag antibodies do bind to their epitopes in the context of the Bitag peptides, indirect ELISA was performed by sensitizing multiwall plates with either Bitag 1 or Bitag 2 peptides at two concentrations (1 μg/mL and 5 μg/mL). For the two coated peptides, 18D12 monoclonal antibody (anti-His tag) or 2G4 and 5F12 monoclonal antibodies (anti-Lys tag) were used for detection with an AP-labelled anti-mouse conjugate.

[3] = tested on: 2G4 monoclonal antibody (anti-Lys tag); assay: Indirect ELISA on plates coated with Bitag peptide, detection with anti-Lys tag antibody 2G4; assay type: binding, mouse
Description: as §3, §4

[4] = tested on: 5F12 monoclonal antibody (anti-Lys tag); assay: Indirect ELISA on plates coated with Bitag peptide, detection with anti-Lys tag antibody 5F12; assay type: binding, mouse; details: 5 μg versus 1 μg of peptide
Description: as §3
Selection and validation of the Bitag peptides and the proximity probes. First, to check that the anti-tag antibodies do bind to their epitopes in the context of the Bitag peptides, indirect ELISA was performed by sensitizing multiwall plates with either Bitag 1 or Bitag 2 peptides at two concentrations (1 μg/mL and 5 μg/mL). […]

[5] = tested on: internal control proximity probes; assay: Procalcitonin and internal control DRI in parallel in PBS-BSA, PCR with internal control primer set; parameters: species or system mouse; details: rPCT 0 or 0.1 ng/mL; peptide 0 to 160 ng/mL
Description: as §1
as §2, with “Finally, a melt step was performed by increasing the temperature gradually from 60° C. to 95° C. at 0.5° C./sec.” left out

procalcitonin (rPCT) [6] = assay: Interference of Bitag 2 peptide with procalcitonin dual-recognition immunoassay in PBS-BSA buffer; parameters: species or system human
Description: as §1, §2
Interference between procalcitonin and internal control. […] The results are illustrated in FIG. 4. For 0.1 ng/mL of rPCT, no significant difference was observed across the range of peptide concentrations added to the sample (mean=34.38±0.15).

[7] = tested on: internal control proximity probes; assay: Internal control dual-recognition immunoassay in human plasma specimens spiked with rPCT and Bitag peptide; assay type: binding, mouse; details: Bitag peptide at 50 ng/mL
Description: as §1
as §2, with “Finally, a melt step was performed by increasing the temperature gradually from 60° C. to 95° C. at 0.5° C./sec.” left out

procalcitonin (rPCT) [8] = assay: Procalcitonin and internal control DRI in parallel in PBS-BSA, PCR with primers specific of the PCT DRI probes; parameters: species or system human; details: 0 ng/mL PCT, PCT primer set
Description: as §1
as §2, with “Finally, a melt step was performed by increasing the temperature gradually from 60° C. to 95° C. at 0.5° C./sec.” left out

[9] = tested on: internal control proximity probes MMC (18D12 and 2G4); assay: Dual-recognition immunoassay (PEA) of Bitag 2 peptide spiked in human plasma, MMC probes; assay type: binding, mouse; details: for loss of Delta-Ct in human plasma compared to PBS-BSA: pool of three plasma specimens
Description: Whole blood specimens were obtained from healthy donors from the French National Blood Bank (EFS, Etablissement Français du Sang, Lyon, France). Samples were selected on the basis of a negative PCT test. Fresh blood was centrifuged for five min at 20 000 g, at 4° C., using a refrigerated microcentrifuge (Eppendorf 5424R, Montesson, France). After centrifugation, the supernatant, which corresponds to the plasma, was recovered for Dual-recognition immunoassay and stored at 4° C. before use. For all biological samples, informed consent was obtained for any experimentation. All experiments were performed in compliance with the relevant laws and institutional guidelines and in accordance with the ethical standards of the Declaration of Helsinki.
as §1, §2
In order to confirm these preliminary results obtained on peptide diluted in the PBS-BSA buffer, PEA™ was performed, using MMC probes, on human plasma (pool of three plasma specimens) spiked with four concentrations of Bitag 2 peptide, from 0 to 500 ng/mL. The results are illustrated in FIG. 3a. Overall, while the assay presented a similar dynamic to that obtained in PBS-BSA buffer, Delta-Ct values appeared to be slightly lower compared to those obtained in PBS-BSA (loss of 0.26 and 0.36 for 5 ng/mL and 50 ng/mL of peptide, respectively). In addition, for 500 ng/mL, a significant loss of dynamic was observed (Delta-Ct50-500 of 0.9 versus Delta-Ct5-50 of 2.72).
Third, a Bitag 2 concentration suitable for internal control Dual-recognition immunoassay had to be chosen. […] To confirm the specificity of the results obtained with 50 ng/mL of Bitag 2 peptide, human plasma specimens were tested by Dual-recognition immunoassay after addition of 50 ng/mL of peptide (n=25 samples) or without peptide complementation (n=13 samples). According to a Mann-Whitney test, the difference between the two groups was significant (P<0.001).

Sequence: MRGSHHHHHHSVDESNNNGKKKKKKSVDESL (MRGSHHHHHHSVDES[Ado][Ado][Ado]GKKKKKKSVDESL-NH2) [Bitag 2′, long His tag and long Lys tag, three spacer units; N is 8-amino-2,4-dioxa octanoic acid]
- results obtained with Bitag 2 peptide repeated with this peptide ([1]; data not shown): reproduced and confirmed

Sequence: MRGSHHHHHHNNGKKKKKKSV (MRGSHHHHHH[Ado][Ado]GKKKKKKSV-NH2) [Bitag 1, His tag and Lys tag separated by two Ado spacers; N is 8-amino-2,4-dioxa octanoic acid]
- OD405 ([2]; 1 μg of Bitag 1 peptide, detection with 18D12): 0.617
- increase of OD405 for 5 μg of peptide ([2]; 5 μg versus 1 μg of peptide, 18D12): +0.262
- signal in the presence of peptide relative to signal without peptide ([2]; 18D12 antibody, 1 μg of Bitag 1): 5.42 times
- OD405 ([3]; 1 μg of Bitag 1 peptide, detection with 2G4): 0.993
- increase of OD405 for 5 μg of peptide ([3]; 5 μg versus 1 μg of peptide, 2G4): +0.089
- signal in the presence of peptide relative to signal without peptide ([3]; 2G4 antibody, 5 μg of Bitag 1): 9.17 times
- increase of OD405 for 5 μg of peptide [4]: +0.074
- Delta-Ct for MMC compared with MML probes ([1]; PBS-BSA buffer): higher

Sequence: MRGSHHHHHHNNNGKKKKKKSV (MRGSHHHHHH[Ado][Ado][Ado]GKKKKKKSV-NH2) [Bitag 2, His tag and Lys tag separated by 3 Ado spacers; N is 8-amino-2,4-dioxa octanoic acid]
- interference of procalcitonin on Ct with internal control PCR primer set [5]: no interference
- Ct of procalcitonin DRI (procalcitonin (rPCT) [6]; 0 ng/mL rPCT, 160 ng/mL of peptide): 35.9
- Ct of procalcitonin DRI, average value for the other peptide concentrations (procalcitonin (rPCT) [6]; 0 ng/mL rPCT, peptide concentrations other than 160 ng/mL): 36.98
- Ct of procalcitonin DRI, mean across the range of peptide concentrations (procalcitonin (rPCT) [6]; 0.1 ng/mL rPCT, Bitag 2 from 0 to 200 ng/mL): 34.38±0.15
- Ct mean value for the internal control ([7]; 0 ng/mL of PCT): 33.53±0.11
- Ct mean value for the internal control ([7]; 10 ng/mL of PCT): 34.23±0.40
- Delta-Ct between sample with 40 ng of peptide and sample without peptide (background noise) (procalcitonin (rPCT) [8]): 1.4
- gain in Delta-Ct for MMC versus MML ([1]; 5 ng/mL of peptide, PBS-BSA buffer): 2.32
- gain in Delta-Ct for MMC versus MML ([1]; 50 ng/mL of peptide, PBS-BSA buffer): 1.86
- Delta-Ct0-50 ([1]; MMC probes, PBS-BSA buffer): 7.08
- Delta-Ct0-50 ([1]; MML probes, PBS-BSA buffer): 5.22
- Delta-Ct of the combination of MMC oligonucleotides and peptide, compared with the other combinations ([1]; peptide concentrations tested (5 and 50 ng/mL), PBS-BSA): highest Delta-Ct
- loss of Delta-Ct in human plasma compared to PBS-BSA ([9]; 5 ng/mL of peptide, MMC probes): 0.26
- loss of Delta-Ct in human plasma compared to PBS-BSA ([9]; 50 ng/mL of peptide, MMC probes): 0.36
- Delta-Ct5-50 ([9]; human plasma, 5 vs 50 ng/mL peptide, MMC probes): 2.72
- Delta-Ct50-500 ([9]; human plasma, 50 vs 500 ng/mL peptide, MMC probes): 0.9
- dynamic range of detection ([9]; short (MMC) oligonucleotides): about 3 orders of magnitude
